Laboratory results reported in patent publication US5750555A, “Bis-indolyl maleinimide or indolopyrrolo carbazole containing an amino acid as PKC inhibitors” (Goedecke Aktiengesellschaft, priority 1992, dated 1998).
Where two headings read alike, the source gives them in different places. Where a SMILES comes first, the peptide text is derived from it. The star is where a group is joined. X1 = Cn1cc(C2=C(c3cn(CCC(=O)*)c4ccccc34)C(=O)NC2=O)c2ccccc21

Experiments:
protein kinase C (PKC) = experiment: Enzyme test PKC with peptide substrate [Ser^25] PKC (19-31), phosphorus^32 phosphate incorporation; type: biochemical, rat
Procedure: The enzyme protein kinase C (PKC) is purified from rat brain. Its activity is determined by way of the incorporation of phosphorus ^32 -labelled phosphate into a synthetic peptide which is derived from the PKC "pseudosubstrate" sequence (arnino acids 19 to 31 of the PKC sequence with alanine in position 25 substituted by serine). A reaction batch of 200 μL contains the following components: 50 mM Tris HCl, pH 7.5, 5 mM MgCl2, 1 mM DTT, 4 μM free Ca^2+, 10 μM ATP, 1 μg phosphatidylserine, 0.2 μg 1,2-diolein, as well as 0.3 μg peptide substrate. The batch is preincubated for 4 minutes at 30° C. and the reaction then started by the addition of 5 nm PKC. After incubation for 5 minutes at 30° C., the reaction is stopped with 0.73% H3 PO4, and the sample then filtered over a nitrocellulose filter (0.1 μm pore size). The phosphate incorporation is determined by means of Cerenkov counting in a scintillation counter. […]

[1] = target: Myosin Light Chain Kinase; experiment: Inhibition of myosin light chain kinase (selectivity test); type: biochemical; conditions: Table 2; for IC50: Myosin Light Chain Kinase, read-out: Inhibition of the Protein Kinases IC50: MLC Kinase; for Ratio of IC50 MLC Kinase/IC50 C Kinase: selectivity ratio MLC Kinase over PKC
Procedure: The selectivity of these compounds with regard to other kinases, such as myosin light chain kinase, was tested on the basis of some examples. These values are set out in the following Table 2.

[2] = Table 1, PKC purified from rat brain, 10 μM ATP, pH 7.5, 30° C., 5 minutes, read-out: Inhibition IC50, Enzyme Test PKC With Peptide Substrate [Ser^25] PKC (19-31)
[3] = Table 2, PKC with peptide substrate [Ser^25] PKC (19-31), read-out: Inhibition of the Protein Kinases IC50: PKC

| IC50 (protein kinase C (PKC); [2]) [nM] | IC50 (protein kinase C (PKC); [3]) [nM] | IC50 [1] [nM] | Ratio of IC50 MLC Kinase/IC50 C Kinase [1] | Compound |
| --- | --- | --- | --- | --- |
| 18 | – | – | – | C[C@H](N)C(=O)NCCC(=O)NCCCn1cc(C2=C(c3cn(C)c4ccccc34)C(=O)NC2=O)c2ccccc21 [Example 4a, 2-[(1-Methyl)-1H-indol-3-yl]-3-[1-[3-(L-alanyl-β-alanyl)-aminopropyl]-1H-indol-3-yl)-maleinimide] |
| 23 | 23 | 2400 | 104 | Cn1cc(C2=C(c3cn(CCCNC(=O)CCN)c4ccccc34)C(=O)NC2=O)c2ccccc21 [Example 1b, 2-[(1-Methyl)-1H-indol-3-yl]-3-[1-(3-β-alanylaminopropyl)-1H-indol-3-yl]-maleinimide] |
| > 1000 | – | – | – | C[C@H](NC(=O)CNC(=O)[C@H](CO)NC(=O)CCn1cc(C2=C(c3cn(C)c4ccccc34)C(=O)NC2=O)c2ccccc21)C(N)=O [Example 7d, 3-[3-[4-(1-methylindol-3-yl)-1H-pyrrole-2,5-dion-3-yl)-indol-1-yl)-propionyl-L-serylglycyl-L-alaninamide] |
| 14 | 14 | 4600 | 328 | Cn1cc(C2=C(c3cn(CCCNC(=O)[C@@H](N)CO)c4ccccc34)C(=O)NC2=O)c2ccccc21 [Example 1, 2-[(1-Methyl)-1H-indol-3-yl]-3-(1-(3-L-serylaminopropyl)-1H-indol-3-yl)-maleinimide] |
| > 100 | – | – | – | C[C@H](NC(=O)CNC(=O)CNC(=O)CCn1cc(C2=C(c3cn(C)c4ccccc34)C(=O)NC2=O)c2ccccc21)C(N)=O [Example 7b, 3-[3-[4-(1-methylindol-3-yl)-1H-pyrrole-2,5-dion-3-yl]-indol-1-yl)-propionylglycylglycyl-L-alaninamide] |
| 25 | – | – | – | C[C@H](N)C(=O)NCCCCn1cc(C2=C(c3cn(C)c4ccccc34)C(=O)NC2=O)c2ccccc21 [Example 2a, 2-[(1-Methyl)-1H-indol-3-yl]-3-[1-(4-L-alanylaminobutylyl)-1H-indol-3-yl)-maleinimide] |
| 53 | – | – | – | C[C@H](N)C(=O)NCCCCCn1c2ccccc2c2c3c(c4c5ccccc5n(C)c4c21)C(=O)NC3=O [Example 10a, 12-[2-(5-L-alanyl)-aminopentyl]-6,7,12,13-tetrahydro-13-methyl-5,7-dioxo-5H-indolo[2,3-a]pyrrolo-[3,4-c]carbazole] |
| 28 | – | – | – | C[C@@H](N)C(=O)NCCCn1cc(C2=C(c3cn(C)c4ccccc34)C(=O)NC2=O)c2ccccc21 [Example 2, 2-[(1-Methyl)-1H-indol-3-yl)-3-[1-(3-D-alanylaminopropyl)-1H-indol-3-yl]-maleinimide] |
| 230 | – | – | – | C[C@H](NC(=O)CCn1cc(C2=C(c3cn(C)c4ccccc34)C(=O)NC2=O)c2ccccc21)C(=O)NCC(=O)N[C@@H](CCCCN)C(N)=O [Example 7, 3-[3-[4-(1-Methylindol-3-yl)-1H-pyrrole-2,5-dion-3-yl]-indol-1-yl)-propionyl-L-alanylglycyl-L-lysinamide] |
| 220 | – | – | – | Cn1cc(C2=C(c3cn(CCCCNC(=O)[C@@H](N)CCCNC(=N)N)c4ccccc34)C(=O)NC2=O)c2ccccc21 [Example 2b, 2-[(1-Methyl)-1H-indol-3-yl]-3-[1-(4-L-arginylaminobutyl)-1H-indol-3-yl]-maleinimide] |
| 580 | – | – | – | C[C@H](NC(=O)CCn1cc(C2=C(c3cn(C)c4ccccc34)C(=O)NC2=O)c2ccccc21)C(=O)O [Example 5, 3-[3-[4-(1-Methylindol-3-yl)-1H-pyrrole-2,5-dion-3-yl]-indol-1-yl)-propionyl-L-alanine] |
| > 1000 | – | – | – | C[C@H](N)C(=O)NCCCCCCCCCn1cc(C2=C(c3cn(C)c4ccccc34)C(=O)NC2=O)c2ccccc21 [Example 2d, 2-[(l-Methyl)-1H-indol-3-yl]-3-[1-(9-L-alanylaminononyl)-1H-indol-3-yl)-maleinimide] |
| > 100 | – | – | – | C[C@H](NC(=O)[C@H](Cc1ccccc1)NC(=O)[C@H](CCCNC(=N)N)NC(=O)[C@H](CC(N)=O)NC(=O)[C@H](CCCCN)NC(=O)CCn1cc(C2=C(c3cn(C)c4ccccc34)C(=O)NC2=O)c2ccccc21)C(N)=O [Example 7a, 3-[3-[4-(1-methylindol-3-yl)-1H-pyrrole-2,5-dion-3-yl]-indol-1-yl)-propionyl-L-lysyl-L-asparaginyl-L-arginyl-L-phenylalanyl-L-alaninamide] (X1-KNRFA-NH2) |
| 61 | – | – | – | Cn1cc(C2=C(c3cn(CCCNC(=O)CCCCNC(=O)[C@@H](N)CO)c4ccccc34)C(=O)NC2=O)c2ccccc21 [Example 3, 2-[(1-Methyl)-1H-indol-3-yl]-3-[1-[3-(5-L-serylaminopentanoyl)-aminopropyl)-1H-indol-3-yl)-maleinimide] |
| > 100 | – | – | – | C[C@H](N)C(=O)NCCCCCn1cc(C2=C(c3cn(C)c4ccccc34)C(=O)NC2=O)c2ccccc21 [Example 2c, 2-[(1-Methyl)-1H-indol-3-yl]-3-[1-(5-L-alanylaminopentyl)-1H-indol-3-yl]-maleinimide] |
| 6.3 | 6.3 | 1900 | 302 | 2-[(1-Methyl)-1H-indol-3-yl]-3-[1-(3-β-alanylamino-propyl)-1H-indol-3-yl]-maleinimide [Example 1a] |
| 9.6 | – | – | – | C[C@H](N)C(=O)NCCCCn1c2ccccc2c2c3c(c4c5ccccc5n(C)c4c21)C(=O)NC3=O [Example 10, 12-[2-(4-L-Alanyl)-aminobutyl]-6,7,12,13-tetrahydro-13-methyl-5,7-dioxo-5H-indolo[2,3-a]pyrrolo[3,4-c]-carbazole] |
| – | 130 | 1300 | 10 | Cn1cc(C2=C(c3cn(CCCN)c4ccccc34)C(=O)NC2=O)c2ccccc21 [A, 3[1(3-aminopropyl)-3-indolyl)-4-(1-methyl-3-indolyl)-1H-pyrrole-2,5-dione, reference compound] |
| 200 | – | – | – | Cn1cc(C2=C(c3cn(CCC(=O)NCC(=O)NCC(=O)N[C@@H](CO)C(N)=O)c4ccccc34)C(=O)NC2=O)c2ccccc21 [Example 7c, 3-[3-[4-(1-methylindol-3-yl)-1H-pyrrole-3,5-dion-3-yl]-indol-1-yl]-propionylglycylglycyl-L-serylamide] |
| > 1000 | – | – | – | Cn1cc(C2=C(c3cn(CCCCCCCCCNC(=O)[C@@H](N)CO)c4ccccc34)C(=O)NC2=O)c2ccccc21 [Example 2e, 2-[(1-Methyl)-1H-indol-3-yl]-3-[1-(9-L-serylaminononyl)-1H-indol-3-yl]-maleinimide] |
| 36 | – | – | – | C[C@H](N)C(=O)NCC(=O)NCCCn1cc(C2=C(c3cn(C)c4ccccc34)C(=O)NC2=O)c2ccccc21 [Example 4, 2-[(1-Methyl)-1H-indol-3-yl)-3-[1-[3-(L-alanylglycyl)-aminopropyl]-1H-indol-3-yl]] |
| 38 | – | – | – | C[C@H](N)C(=O)NCCCn1c2ccccc2c2c3c(c4c5ccccc5n(C)c4c21)C(=O)NC3=O [Example 8, 12-[2-(3-L-Alanyl)-aminopropyl)-6,7,12,13-tetrahydro-13-methyl-5,7-dioxo-5H-indolo[2,3-a]pyrrolo[3,4-c]-carbazole] |
| 330 | – | – | – | C[C@H](N)C(=O)NCCCCCCCCn1cc(C2=C(c3cn(C)c4ccccc34)C(=O)NC2=O)c2ccccc21 [Example 2f, 2-[(1-Methyl)-1H-indol-3-yl]-3-[1-(9-L-alanylaminooctyl)-1H-indol-3-yl)-maleinimide] |

| Compound | IC50 (protein kinase C (PKC); [2]) [nM] | IC50 (protein kinase C (PKC); [3]) [nM] | IC50 [1] [nM] | Ratio of IC50 MLC Kinase/IC50 C Kinase [1] |
| --- | --- | --- | --- | --- |
| 12-[2-(L-Alanyl-L-arginyl)-aminopropyl]-6,7,12,13-tetrahydro-13-methyl-5,7- dioxo-5H-indolo[2,3-a]pyrrolo-[3,4-c]carbazole [Example 9] | 190 | – | – | – |
